Laboratory results taken from patent US4623662A, “Antiatherosclerotic ureas and thioureas” (American Cyanamid Company, priority 1985, dated 1986).
pIC50: −log10 of the molar value. Where two headings read alike, the source gives them in different places.

How the values were obtained:
[1] = target: T1, fatty acyl CoA: cholesterol acyl transferase (ACAT) (Rattus norvegicus, UniProt O70536); test: Inhibition of fatty acyl CoA:cholesterol acyl transferase (ACAT), rat adrenal enzyme; assay type: biochemical; settings: for pIC50: several concentrations
T1 construct: The supernatant, containing the microsomal fraction, served as the source of the cholesterol-esterifying enzyme; from tissue; host or cells: rat adrenals, supernatant of 1,000 x g centrifugation containing the microsomal fraction
T1 sequence (O70536 1-545): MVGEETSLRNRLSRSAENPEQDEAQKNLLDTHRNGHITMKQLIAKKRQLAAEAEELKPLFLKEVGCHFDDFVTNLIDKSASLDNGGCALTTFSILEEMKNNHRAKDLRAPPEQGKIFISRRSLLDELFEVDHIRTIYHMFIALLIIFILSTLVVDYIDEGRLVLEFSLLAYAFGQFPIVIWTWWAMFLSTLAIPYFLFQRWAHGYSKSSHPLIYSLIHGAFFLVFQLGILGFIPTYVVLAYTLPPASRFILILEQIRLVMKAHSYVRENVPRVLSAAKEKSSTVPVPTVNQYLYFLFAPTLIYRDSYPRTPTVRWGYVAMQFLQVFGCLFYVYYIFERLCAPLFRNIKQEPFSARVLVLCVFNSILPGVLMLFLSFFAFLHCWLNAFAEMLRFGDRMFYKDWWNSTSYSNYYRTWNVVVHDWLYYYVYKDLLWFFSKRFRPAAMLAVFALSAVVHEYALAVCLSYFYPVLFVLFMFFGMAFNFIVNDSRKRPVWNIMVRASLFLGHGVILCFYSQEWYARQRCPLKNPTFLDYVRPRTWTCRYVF
Procedure, shortened: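 Read-out was scintillation counting of [14C]cholesteryl ester, isolated by TLC, after 10 min at 37° C with [14C]oleoyl CoA. Beforehand, compound (final 5.2 μg/ml in single-concentration tests) was preincubated 10 min at 37° C with BSA and rat adrenal microsomal supernatant in pH 7.4 phosphate. Results given as percent inhibition versus control or IC50 over several concentrations.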

cholesterol absorption = test: Inhibition of cholesterol absorption in rats fed 1% cholesterol:0.5% cholic acid diet; assay type: in vivo, male Sprague-Dawley rats; settings: po, 336 h, rat, 2 weeks; for response vs control in vivo at 0.01 %: dose .01% of the diet; for response vs control in vivo at 0.03 %: dose .03% of the diet
Procedure, shortened: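 Compound was mixed into the diet (0.001-0.03%) of male Sprague-Dawley rats, 150-170 g, on a 1% cholesterol/0.5% cholic acid regimen for 2 weeks. At sacrifice, serum cholesterol (enzymatic) and liver neutral-sterol cholesterol were measured; values given as percent of compound-free control rats.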

[2] = read-out: LS (liver sterol), percentage of control values
[3] = read-out: SS (serum sterol), percentage of control values
[4] = rat adrenal ACAT, final concentration 5.2 μg/ml, read-out: % Inhibition

CCCCCCCN(Cc1ccc(CCCC(=O)OCC)cc1)C(=O)Nc1c(C)cc(Cl)cc1C [1-(n-Heptyl)-1-[4-(3-carboethoxypropyl)benzyl]-3-(4-chloro-2,6-dimethylphenyl)urea]
pIC50 ([1]; rat adrenal ACAT): 5.97
response vs control in vivo at 0.01 % (cholesterol absorption; [2]): 65%
response vs control in vivo at 0.01 % (cholesterol absorption; [3]): 55%

CCCCCCCN(Cc1ccc(CCCCCl)cc1)C(=O)Nc1c(C)cc(Cl)cc1C [1-(n-Heptyl)-1-[4-(4-chlorobutyl)benzyl]-3-(4-chloro-2,6-dimethylphenyl)urea]
pIC50 ([1]; rat adrenal ACAT): 6.96
response vs control in vivo at 0.03 % (cholesterol absorption; [2]): 18%
response vs control in vivo at 0.03 % (cholesterol absorption; [3]): 19%

CCCCCCCN(Cc1ccc(CCCCO)cc1)C(=O)Nc1c(C)cc(Cl)cc1C [1-(n-Heptyl)-1-[4-(4-hydroxybutyl)benzyl]-3-(4-chloro-2,6-dimethylphenyl)urea]
pIC50 ([1]; rat adrenal ACAT): 6.09
response vs control in vivo at 0.01 % (cholesterol absorption; [2]): 26%
response vs control in vivo at 0.01 % (cholesterol absorption; [3]): 24%

CCCCCCCN(Cc1ccc(CCC(C)C)cc1)C(=O)Nc1ccc(Cl)cc1C [1-(n-Heptyl)-1-[4-(4-isopentyl)benzyl]-3-(4-chloro-2-methylphenyl)urea]
pIC50 ([1]; rat adrenal ACAT): 5.62
response vs control in vivo at 0.01 % (cholesterol absorption; [2]): 17%
response vs control in vivo at 0.01 % (cholesterol absorption; [3]): 20%

CCCCCCCN(Cc1ccc(CC(C)C)cc1)C(=O)Nc1ccc(Cl)cc1C [1-(n-Heptyl)-1-[4-(isobutyl)benzyl]-3-(4-chloro-2-methylphenyl)urea]
pIC50 ([1]; rat adrenal ACAT): 5.74
response vs control in vivo at 0.01 % (cholesterol absorption; [2]): 56%
response vs control in vivo at 0.01 % (cholesterol absorption; [3]): 62%

CCCCCCCN(Cc1ccc(CCC(C)C)cc1)C(=O)Nc1c(C)cc(Cl)cc1C [1-(n-Heptyl)-1-[4-(isopentyl)benzyl]-3-(4-chloro-2,6-dimethylphenyl)urea]
pIC50 ([1]; rat adrenal ACAT): 6.89
response vs control in vivo at 0.01 % (cholesterol absorption; [2]): 10%
response vs control in vivo at 0.01 % (cholesterol absorption; [3]): 17%

CCCCCCCN(Cc1ccc(C(C)C)cc1)C(=O)Nc1c(F)cc(F)cc1F [1-(n-Heptyl)-1-[4-(isopropyl)benzyl]-3-(2,4,6-trifluorophenyl)urea]
pIC50 ([1]; rat adrenal ACAT): 6.46
response vs control in vivo at 0.01 % (cholesterol absorption; [2]): 23%
response vs control in vivo at 0.01 % (cholesterol absorption; [3]): 40%

CCCCCCCN(Cc1ccc(C(C)C)cc1)C(=O)Nc1ccc(F)cc1F [1-(n-Heptyl)-1-[4-(isopropyl)benzyl]-3-(2,4-difluorophenyl)urea]
pIC50 ([1]; rat adrenal ACAT): 5.93
response vs control in vivo at 0.01 % (cholesterol absorption; [2]): 64%
response vs control in vivo at 0.01 % (cholesterol absorption; [3]): 77%

CCCCCCCN(Cc1ccc(C(C)C)cc1)C(=O)Nc1c(C)cc(Cl)cc1C [1-(n-Heptyl)-1-[4-(isopropyl)benzyl]-3-(4-chloro-2,6-dimethylphenyl)urea]
pIC50 ([1]; rat adrenal ACAT): 6.70
response vs control in vivo at 0.01 % (cholesterol absorption; [2]): 20%
response vs control in vivo at 0.01 % (cholesterol absorption; [3]): 35%

CCCCCCCN(Cc1ccc(C(C)C)cc1)C(=O)Nc1ccc(Cl)cc1C [1-(n-Heptyl)-1-[4-(isopropyl)benzyl]-3-(4-chloro-2-methylphenyl)urea]
pIC50 ([1]; rat adrenal ACAT): 5.76
response vs control in vivo at 0.01 % (cholesterol absorption; [2]): 75%
response vs control in vivo at 0.01 % (cholesterol absorption; [3]): 60%

CCCCCCCN(Cc1ccc(CCCC)cc1)C(=O)Nc1cc(C)c(Cl)cc1C [1-(n-Heptyl)-1-[4-(n-butyl)benzyl]-3-(4-chloro-2,5-dimethylphenyl)urea]
inhibition at 5.2 µg/mL [1]: 90%
response vs control in vivo at 0.03 % (cholesterol absorption; [2]): 19%
response vs control in vivo at 0.03 % (cholesterol absorption; [3]): 48%

CCCCCCCN(Cc1ccc(CCCC)cc1)C(=O)Nc1c(C)cc(Cl)cc1C [1-(n-Heptyl)-1-[4-(n-butyl)benzyl]-3-(4-chloro-2,6-dimethylphenyl)urea]
inhibition at 5.2 µg/mL [1]: 90%
response vs control in vivo at 0.03 % (cholesterol absorption; [2]): 11%
response vs control in vivo at 0.03 % (cholesterol absorption; [3]): 31%

CCCCCCCN(Cc1ccc(OCCCC)cc1)C(=O)Nc1ccc(Cl)cc1Cl [1-(n-Heptyl)-(4-n-butoxybenzyl)-3-(2,4-dichlorophenyl)urea]
inhibition at 5.2 µg/mL [1, 4]: 79.9%
response vs control in vivo at 0.03 % (cholesterol absorption; [2]): 50%
response vs control in vivo at 0.03 % (cholesterol absorption; [3]): 68%

CCCCCCCN(Cc1ccc(OCCCC)cc1)C(=O)Nc1ccc(Cl)cc1C(F)(F)F [1-(n-Heptyl)-(4-n-butoxybenzyl)-3-(2-trifluoromethyl-4-chlorophenyl)urea]
inhibition at 5.2 µg/mL [1, 4]: 89.4%
response vs control in vivo at 0.03 % (cholesterol absorption; [2]): 35%
response vs control in vivo at 0.03 % (cholesterol absorption; [3]): 59%
